Measurements reported in PubChem BioAssay (NCI).
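All cell lines were grown in 96-well plates and treated with compound for 48 hours. TGI is the concentration that stops growth completely.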

Tests used:
Assay in all cases: NCI anticancer screen, dose series, 48 h
UACC-257 melanoma = tested on: UACC-257 melanoma
SF-295 CNS = tested on: SF-295 CNS
HCT-15 colon = tested on: HCT-15 colon
RXF 393 renal = tested on: RXF 393 renal
SK-MEL-28 melanoma = tested on: SK-MEL-28 melanoma
NCI-H23 lung = tested on: NCI-H23 lung
HCT-116 colon = tested on: HCT-116 colon
786-0 renal = tested on: 786-0 renal
HS 578T breast = tested on: HS 578T breast
MALME-3M melanoma = tested on: MALME-3M melanoma
ACHN renal = tested on: ACHN renal
OVCAR-8 ovarian = tested on: OVCAR-8 ovarian
UACC-62 melanoma = tested on: UACC-62 melanoma
KM12 colon = tested on: KM12 colon
M14 melanoma = tested on: M14 melanoma
U251 CNS = tested on: U251 CNS
T-47D breast = tested on: T-47D breast
SF-539 CNS = tested on: SF-539 CNS
SN12C renal = tested on: SN12C renal
OVCAR-3 ovarian = tested on: OVCAR-3 ovarian
MDA-MB-231 breast = tested on: MDA-MB-231 breast
NCI-H522 lung = tested on: NCI-H522 lung
SR leukemia = tested on: SR leukemia
IGROV1 ovarian = tested on: IGROV1 ovarian
A498 renal = tested on: A498 renal
OVCAR-5 ovarian = tested on: OVCAR-5 ovarian
SK-MEL-2 melanoma = tested on: SK-MEL-2 melanoma
SF-268 CNS = tested on: SF-268 CNS
NCI/ADR-RES ovarian = tested on: NCI/ADR-RES ovarian
RPMI-8226 leukemia = tested on: RPMI-8226 leukemia
PC-3 prostate = tested on: PC-3 prostate
SK-MEL-5 melanoma = tested on: SK-MEL-5 melanoma
OVCAR-4 ovarian = tested on: OVCAR-4 ovarian
K-562 leukemia = tested on: K-562 leukemia
MDA-N = tested on: MDA-N
HL-60(TB) leukemia = tested on: HL-60(TB) leukemia
SW-620 colon = tested on: SW-620 colon
DU-145 prostate = tested on: DU-145 prostate
BT-549 breast = tested on: BT-549 breast
HOP-92 NSCLC = tested on: HOP-92 NSCLC
NCI-H226 lung = tested on: NCI-H226 lung
CCRF-CEM leukemia = tested on: CCRF-CEM leukemia
MCF7 breast = tested on: MCF7 breast
HT29 colon = tested on: HT29 colon
NCI-H460 lung = tested on: NCI-H460 lung
SNB-75 CNS = tested on: SNB-75 CNS
COLO 205 colon = tested on: COLO 205 colon
MOLT-4 leukemia = tested on: MOLT-4 leukemia
MDA-MB-435 = tested on: MDA-MB-435
SK-OV-3 ovarian = tested on: SK-OV-3 ovarian
EKVX NSCLC = tested on: EKVX NSCLC
LOX IMVI melanoma = tested on: LOX IMVI melanoma
A549 NSCLC = tested on: A549 NSCLC
SNB-19 CNS = tested on: SNB-19 CNS
TK-10 renal = tested on: TK-10 renal
HOP-62 NSCLC = tested on: HOP-62 NSCLC
CAKI-1 renal = tested on: CAKI-1 renal

Measured: TGI

NC1(P(=O)(O)O)CCCCC1
> 100 µM: all assays above

CN(C)CCNS(=O)(=O)N(C)C
> 100 µM: all assays above
